Measured values as given in publication PMC5915369 (Anticancer research, 2015).

Columns and labels:
[1] = test system: HIF1α transcriptional activity; type: cell-based; conditions: Homo sapiens, 24 h, read-out: Menu IC50 ± SEM
[2] = test system: platelet aggregation; conditions: could lead to internal bleeding side effects; cited from earlier work

SMILES	IC50 [1] [nM]	inhibition of platelet aggregation [2]
CN1C(=O)[C@]2(Cc3cn([C@]45C[C@@]67SS[C@@](CO)(C(=O)N6[C@H]4Nc4ccccc45)N(C)C7=O)c4ccccc34)SS[C@@]1(CO)C(=O)N2C [Chetomin]	40 ± 10	–
OCc1ccc(-c2nn(Cc3ccccc3)c3ccccc23)o1 [YC-1, 3-(5′-hydroxymethyl-2′-furyl)-1-benzyl indazole]	–	strong inhibition of platelet aggregation
